Measurements from patent US20250073184A1, “CANNABIGEROQUINONE COMPOUNDS, COMPOSITIONS INCLUDING SUCH COMPOUNDS, AND USES OF SUCH COMPOUNDS AND COMPOSITIONS” (Juva Life, Inc., priority 2021, published 2025).

Experiments:
[1] = biological target: T1, cannabinoid receptor 1 (CNR1) (Homo sapiens, UniProt P21554); experiment: CB1 receptor agonist assay (cAMP Hunter eXpress, CNR1 CHO-K1 cells); format: cell-based; conditions: agonist mode, Forskolin-stimulated cAMP
T1 construct: host or cells: CHO-K1
Experimental: The assays were performed in cAMP Hunter eXpress cells engineered to overexpress naturally Gi/Go-coupled wildtype cannabinoid receptor 1 (CNR1) or cannabinoid receptor 2 (CNR2) in CHO-K1 cell type. In these cells, CB1 and/or […] agonists inhibit production of intracellular cAMP in response to stimulation with Forskolin. cAMP levels are determined using luminogenic detection reagents provided with the Hunter eXpress cAMP detection kit.
• Assay ready CNR1 CHO-K1 cells were obtained from Eurofins/Discover X, cat #95-0071E2 • Assay ready CNR2 CHO-K1 cells were obtained from Eurofins/Discover X, cat #95-0183E2 • Hunter eXpress cAMP detection kit was also from Discover X. The kit includes all cAMP detection reagents, Forskolin, complete cell plating medium and cell assay buffer.
The Assay-Ready CNR1 CHO-K1 or CNR2 CHO-K1 cells were thawed and re-suspended in pre-warmed Assay Complete plating medium and inoculated into 96 well plate at a density of 30,000 cells in 100 μL. The plates with cells were incubated for 24 h at 37° C. in 5% CO2. […] The cells were stimulated with the Forskolin/compound buffer for 30 min. […] The plate was read on Biotek Synergy Neo2 reader in luminescent mode. […] Relative luminescence units (RLUs) were plotted against compound concentration to determine apparent EC50 values of the agonist compounds.

[2] = test system: PANC-1 pancreatic carcinoma cell line; experiment: PANC-1 cell line toxicity (Cell titer Glo viability); conditions: PANC-1, 72 h
Experimental: The half maximal inhibition concentration (IC50) for each compound was determined by harvesting cells during the logarithmic growth period and then counting cell number using hemocytometer. The cell concentrations were adjusted to 5×10^4 cells/mL with respective culture medium. 30 μL of cell suspensions were added to three 384-well plates with the final cell density of 1.5×10^3 cells/well. Then, using a Biomek FX, test articles were serially diluted (10 mM top, 3× dilution intervals) along with a reference inhibitor (1 mM top, 3× dilution intervals) in acoustic grade Labcyte plate. Then, using an acoustic dispenser (Labcyte550), compounds were added as serially diluted to plate with cells: 90 nL of serially diluted compounds per well. 90 nL DMSO is added to control wells. Test plates were incubated for 72 h in the humidified incubator at 37° C. with 5% CO2. 25 μL of reconstituted Cell titer Glo reagent was added to each well. Each test plate was then incubated for 20 min at room temperature. Luminescence was then recorded using Synergy Neo2Multi-mode Reader.
In order to calculate intersect IC50, a dose-response curve was fitted using nonlinear regression model with a sigmoidal dose response.
The formula for calculating surviving rate is shown below, and the intersect IC50 was calculated according to the dose-response curve generated by the software:
Culture medium were purchased from ATCC, USA.

Human COX2 = biological target: T2, Human COX2 (Homo sapiens, UniProt P35354); experiment: Biochemical COX-2 assay; conditions: recombinant enzyme; read-out: Inhibitory Activity EC50, Cox2
T2 construct: 1-604 (end); purchased BPS Biosciences 71111; host or cells: baculovirus infected Sf9 cells
T2 sequence (P35354 18-604): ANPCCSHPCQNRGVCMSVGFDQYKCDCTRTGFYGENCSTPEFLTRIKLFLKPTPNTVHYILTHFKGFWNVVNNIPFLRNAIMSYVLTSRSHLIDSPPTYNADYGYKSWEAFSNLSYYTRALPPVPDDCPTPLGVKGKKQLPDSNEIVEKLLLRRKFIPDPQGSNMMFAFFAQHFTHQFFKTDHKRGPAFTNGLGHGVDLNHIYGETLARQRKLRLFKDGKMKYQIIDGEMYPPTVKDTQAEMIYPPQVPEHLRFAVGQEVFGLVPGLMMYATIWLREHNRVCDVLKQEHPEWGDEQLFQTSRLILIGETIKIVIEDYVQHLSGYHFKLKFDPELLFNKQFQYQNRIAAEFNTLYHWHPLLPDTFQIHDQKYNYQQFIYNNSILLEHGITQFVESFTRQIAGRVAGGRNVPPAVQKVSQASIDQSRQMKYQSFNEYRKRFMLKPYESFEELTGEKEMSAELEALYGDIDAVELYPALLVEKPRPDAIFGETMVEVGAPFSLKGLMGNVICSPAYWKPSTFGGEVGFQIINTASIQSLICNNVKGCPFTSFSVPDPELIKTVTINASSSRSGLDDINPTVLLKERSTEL
Description: • Human COX2, GenBank Accession No. NM_000963, a.a. 1-604 (end), with C-terminal FLAG-His-tag, MW=71 kDa, expressed in a baculovirus infected Sf9 cell expression system was obtained from BPS Biosciences (Catalog #71111) • Cyclooxygenase (COX) Activity Assay Kit (Fluorometric) was obtained from Abcam (Catalog #ab204699) • Other reagents: black 384 well assay plates were obtained from Corning (Cat #3820). • Equipment: Synergy Neo2 Multi-mode plate reader (Biotek), Labcyte 550 acoustic dispenser (Labcyte), Biomek FX robotic dispenser (Beckman Coulter), Sorvall Legend RT centrifuge (Kendro).
Serially diluted compounds were prepared in DMSO in Echo qualified 384 well plates. An assay buffer was then prepared, and supplemented with Cox cofactor and fluorogenic probe as described in the Cox activity kit manual. […]
Serially diluted compounds were added to the assay plate by acoustic dispensing (Labcyte 550). […] Afterwards, the plate was read on a Synergy Neo2 in fluorescence mode: excitation 535 nm, emission 590 nm. % inhibition of the compound was calculated using following equation:
where RFU100% is fluorescence in control samples without compound, RFU0% is fluorescence in control samples without COX-2, and RFU compound fluorescence in a sample with compound.
The calculated %-Inh values were then plotted against compound concentration. […]

T1 sequence (P21554 whole entry): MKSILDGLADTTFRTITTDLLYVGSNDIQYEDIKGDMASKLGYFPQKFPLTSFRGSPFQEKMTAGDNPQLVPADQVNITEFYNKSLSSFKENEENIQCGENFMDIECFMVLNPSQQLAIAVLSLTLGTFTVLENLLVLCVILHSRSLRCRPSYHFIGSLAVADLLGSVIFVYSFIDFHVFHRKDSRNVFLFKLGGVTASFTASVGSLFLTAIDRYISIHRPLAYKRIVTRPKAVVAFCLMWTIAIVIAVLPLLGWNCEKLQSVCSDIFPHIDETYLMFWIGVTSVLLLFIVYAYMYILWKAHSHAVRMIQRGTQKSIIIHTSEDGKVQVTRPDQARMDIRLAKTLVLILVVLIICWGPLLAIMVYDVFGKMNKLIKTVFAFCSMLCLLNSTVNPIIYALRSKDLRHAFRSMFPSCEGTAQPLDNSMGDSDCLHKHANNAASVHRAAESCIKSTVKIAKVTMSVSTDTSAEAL

Cannabigerol Quinone [Formula VI]
IC50 [1]: > 3 µM | higher tolerance of PANG-1 cells to the compound than staurosporine [2]: more than 750 fold | Cell Viability (%) ([2]; 0.00017 uM): 106.6% | Cell Viability (%) ([2]; 0.00051 uM): 107.5% | Cell Viability (%) ([2]; 0.0015 uM): 100.4% | Cell Viability (%) ([2]; 0.0046 uM): 104.2% | Cell Viability (%) ([2]; 0.014 uM): 100.2% | Cell Viability (%) ([2]; 0.041 uM): 99.9% | Cell Viability (%) ([2]; 0.12 uM): 99.2% | Cell Viability (%) ([2]; 0.37 uM): 98.6% | Cell Viability (%) ([2]; 1.1 uM): 102.6% | Cell Viability (%) ([2]; 3.3 uM): 95.7% | Cell Viability (%) ([2]; 10 uM): 99.4% | Cell Viability (%) ([2]; 30 uM): 99.8% | EC50 ([2]; read-out: EC50 (cell viability)): > 30 µM | EC50 (Human COX2): 60.6 µM
